Results published in ChEMBL document CHEMBL1201862, “PubChem BioAssay data set” (2004).
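Results reflect a 48-hour exposure of cells in 96-well plates to compound at five concentrations. Abbreviation: GI50, concentration required for 50% inhibition of growth.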 Activity calls are given as the source filed them. Cut-off read from the data, not from the text of the source: active = GI50 up to about 1.1 µM and inactive = higher.

Key:
Experiment in all cases: growth of human tumour cells (NCI), 48 h
BT-549 = system: BT-549
T47D = system: T47D
M19-MEL = system: M19-MEL
XF498 = system: XF498
HOP-18 = system: HOP-18
DMS-114 = system: DMS-114
DLD-1 = system: DLD-1
KM-20L2 = system: KM-20L2

Structure (SMILES): CN(C)c1ccc(C(c2ccc(N(C)C)cc2)c2ccc([N+](=O)[O-])cc2)cc1
- GI50 (BT-549): > 100 µM (inactive)
- GI50 (T47D): > 100 µM (inactive)

Structure (SMILES): CC1=NN(C(=O)Cc2ccccc2)C(=O)/C1=C/c1c(O)ccc2ccccc12
- GI50 (M19-MEL): 33 µM (inactive)
- GI50 (XF498): 1.68 µM (inactive)
- GI50 (HOP-18): 30.3 µM (inactive)
- GI50 (DMS-114): 45.9 µM (inactive)
- GI50 (DLD-1): 10 µM (inactive)

Structure (SMILES): CCSc1cc2c(cc1O)CC[C@@H]1[C@@H]2CC[C@]2(C)[C@@H](O)CC[C@@H]12
- GI50 (T47D): > 10 µM (inactive)

Structure (SMILES): O=c1ccn(C2OC(CO)C(O)C2F)c(=O)n1Cc1ccccc1 (configuration not stated)
- GI50 (T47D): > 100 µM (inactive)

Structure (SMILES): CN1C/C(=C\c2ccc(Cl)cc2)C(=O)/C(=C/c2ccc(Cl)cc2)C1
- GI50 (T47D): 4.48 µM (inactive)

Structure (SMILES): C/C=C/COc1cc(NC(=S)OC(C)C)ccc1Cl.C/C=C\COc1cc(NC(=S)OC(C)C)ccc1Cl
- GI50 (BT-549): 19.6 µM (inactive)
- GI50 (T47D): 16.9 µM (inactive)

Structure (SMILES): COC(=O)[C@]1(C)CCCC2(C)C3=C(CCC21)CC1(CC3)SCCS1 (some centres not stated)
- GI50 (BT-549): > 10 µM (inactive)
- GI50 (T47D): > 10 µM (inactive)

Structure (SMILES): NC(=O)c1ccc(NS(=O)(=O)c2ccc(N)cc2)nc1
- GI50 (BT-549): > 100 µM (inactive)
- GI50 (T47D): > 100 µM (inactive)

Structure (SMILES): CCCCCCCCCCCC(=O)c1c(O)cc(C)oc1=O
- GI50 (BT-549): 87.1 µM (inactive)
- GI50 (T47D): 34.8 µM (inactive)

Structure (SMILES): CCOP(=O)(CCCC(O)CNc1cc(Cl)nc(N)n1)OCC (configuration not stated)
- GI50 (BT-549): > 100 µM (inactive)
- GI50 (T47D): > 100 µM (inactive)

Structure (SMILES): CC(=O)OC12c3ccccc3C(c3ccccc31)C1C(=O)N(c3ccccc3O)C(=O)C12 (configuration not stated)
- GI50 (BT-549): > 100 µM (inactive)
- GI50 (T47D): > 100 µM (inactive)

Structure (SMILES): O=S(=O)(Sc1ccc(Cl)cc1)c1ccc(Cl)cc1
- GI50 (M19-MEL): 17.9 µM (inactive)
- GI50 (XF498): 20.2 µM (inactive)
- GI50 (KM-20L2): 17.8 µM (inactive)
- GI50 (DMS-114): 15.1 µM (inactive)
- GI50 (DLD-1): 16.7 µM (inactive)

Structure (SMILES): C[C@@H]1OC(=O)C[C@H]2CC(=O)N(CCC3CN(S(=O)(=O)C(F)(F)F)c4ccc(Cc5ccc6c(c5)C(CCN5C[C@H]7[C@@H](CC(=O)O[C@H]7C)CC5=O)CN6S(=O)(=O)C(F)(F)F)cc43)C[C@@H]21 (some centres not stated)
- GI50 (BT-549): > 100 µM (inactive)
- GI50 (T47D): > 100 µM (inactive)

Structure (SMILES): OCC(O)C(O)C(O)C(O)c1nc2cc(Cl)ccc2[nH]1 (configuration not stated)
- GI50 (BT-549): > 100 µM (inactive)
- GI50 (T47D): > 100 µM (inactive)

Structure (SMILES): CCN1CC2(C)CC[C@@H](OC)C34[C@@H]2[C@H](OC(C)=O)C2(OCO[C@@]25C[C@H](OC)C2C[C@]3(O)[C@@H]5[C@H]2O)[C@H]14
- GI50 (M19-MEL): > 100 µM (inactive)
- GI50 (KM-20L2): > 100 µM (inactive)
- GI50 (DMS-114): > 100 µM (inactive)
- GI50 (DLD-1): > 100 µM (inactive)

Structure (SMILES): Cc1c(NC(=S)NC(=O)c2ccc([N+](=O)[O-])cc2)c(=O)n(-c2ccccc2)n1C
- GI50 (M19-MEL): > 100 µM (inactive)
- GI50 (KM-20L2): > 100 µM (inactive)
- GI50 (HOP-18): > 100 µM (inactive)
- GI50 (DMS-114): > 100 µM (inactive)
- GI50 (DLD-1): > 100 µM (inactive)

Structure (SMILES): CC(=O)Nc1ccc(/C=C2/NC(=S)N(/C=C3\C(=O)Oc4ccccc4C3=O)C2=O)cc1
- GI50 (T47D): 64.3 µM (inactive)

Structure (SMILES): CCc1cccc(CC)c1NC(=O)C1=C(C)NC(C)=C(C(=O)Nc2c(CC)cccc2CC)C1c1ccc([N+](=O)[O-])cc1
- GI50 (M19-MEL): 21.3 µM (inactive)
- GI50 (XF498): 18.4 µM (inactive)
- GI50 (KM-20L2): 26.7 µM (inactive)
- GI50 (DMS-114): 15.4 µM (inactive)
- GI50 (DLD-1): 21.4 µM (inactive)

Structure (SMILES): COC(=O)/C=C(\C)C(=O)N(C)c1ccccc1I
- GI50 (T47D): > 100 µM (inactive)

Structure (SMILES): CCC1(O)CC(OC2CC(N(C)C)C(OC3CC(O)C(OC4OC(C)C(=O)C=C4N)C(C)O3)C(C)O2)c2c(O)c3c(c(O)c2C1C(=O)OC)C(=O)c1cccc(O)c1C3=O (configuration not stated)
- GI50 (T47D): 0.0118 µM (active)

Structure (SMILES): O=C1c2ccccc2C(=O)N1CCN(CCN1C(=O)c2ccccc2C1=O)Cc1ccccc1
- GI50 (M19-MEL): > 100 µM (inactive)
- GI50 (XF498): > 100 µM (inactive)
- GI50 (KM-20L2): > 100 µM (inactive)
- GI50 (DMS-114): > 100 µM (inactive)
- GI50 (DLD-1): > 100 µM (inactive)

Structure (SMILES): O/N=C/C1c2ccccc2-c2ccccc21
- GI50 (BT-549): 16.9 µM (inactive)
- GI50 (T47D): 19.3 µM (inactive)

Structure (SMILES): N#C/C=C1\C=CC(O)C(O)C1OC1OC(CO)C(O)C(O)C1O (configuration not stated)
- GI50 (BT-549): > 100 µM (inactive)
- GI50 (T47D): > 100 µM (inactive)

Structure (SMILES): Cc1cc(/N=C/c2ccc(N(C)C)cc2)n(-c2ccccc2)n1
- GI50 (BT-549): 51.3 µM (inactive)
- GI50 (T47D): 18.5 µM (inactive)

Structure (SMILES): COc1cc2c(=O)cnoc2cc1O
- GI50 (BT-549): > 100 µM (inactive)
- GI50 (T47D): > 100 µM (inactive)

Structure (SMILES): Cc1nnc2n1N=C(c1ccccc1)C(c1ccccc1)S2 (configuration not stated)
- GI50 (M19-MEL): 43.8 µM (inactive)
- GI50 (XF498): > 100 µM (inactive)
- GI50 (KM-20L2): 27.4 µM (inactive)
- GI50 (HOP-18): 60.7 µM (inactive)
- GI50 (DMS-114): 25.5 µM (inactive)
- GI50 (DLD-1): 55.3 µM (inactive)

Structure (SMILES): CC1=C(O)C(=O)C2C(=O)C1C(C)C2c1ccccc1 (configuration not stated)
- GI50 (M19-MEL): > 100 µM (inactive)
- GI50 (XF498): > 100 µM (inactive)
- GI50 (DLD-1): > 100 µM (inactive)

Structure (SMILES): CC(=O)O[C@H]1C(=O)[C@@]2(C)[C@H]([C@H](OC(=O)c3ccccc3)[C@]3(O)C[C@H](OC(=O)[C@H](OC(=O)OCCC(O)CO)[C@@H](NC(=O)c4ccccc4)c4ccccc4)C(C)=C1C3(C)C)[C@]1(OC(C)=O)CO[C@@H]1C[C@@H]2O (some centres not stated)
- GI50 (BT-549): < 0.0159 µM (active)
- GI50 (T47D): < 0.01 µM (active)
